# Results taken from ChEMBL document CHEMBL3734705, “Synthesis and in vitro cytotoxicity of novel C-12 substituted-14-deoxy-andrographolide derivatives as potent anti-cancer agents” (2015).
# Columns and labels:
# SR [1] = assay: Cytotoxicity against human SR cells assessed as growth inhibition at 10 uM after 48 hrs by SRB assay; type: functional; conditions: read-out: GI
# NCI-H322M = assay: Cytotoxicity against human NCI-H322M cells assessed as growth level at 10 uM after 48 hrs by SRB assay; type: functional
# [2] = Cytotoxicity against human HCT116 cells assessed as growth level at 10 uM after 48 hrs by SRB assay; type: functional, HCT-116
# 786-0 = assay: Cytotoxicity against human 786-0 cells assessed as growth inhibition at 10 uM after 48 hrs by SRB assay; type: functional; conditions: 786-0, 48 h, read-out: GI
# MDA-MB-468 [3] = assay: Cytotoxicity against human MDA-MB-468 cells assessed as growth level at 10 uM after 48 hrs by SRB assay; type: functional
# SR [4] = assay: Cytotoxicity against human SR cells assessed as growth level at 10 uM after 48 hrs by SRB assay; type: functional
# [5] = Cytotoxicity against human HL-60(TB) cells assessed as growth level at 10 uM after 48 hrs by SRB assay; type: functional
# U-251 = assay: Cytotoxicity against human U251 cells assessed as growth level at 10 uM after 48 hrs by SRB assay; type: functional
# [6] = Cytotoxicity against human Hs578T cells assessed as growth level at 10 uM after 48 hrs by SRB assay; type: functional, Hs-578T
# [7] = Cytotoxicity against human SW620 cells assessed as growth level at 10 uM after 48 hrs by SRB assay; type: functional, SW-620
# SN12C [8] = assay: Cytotoxicity against human SN12C cells assessed as growth level at 10 uM after 48 hrs by SRB assay; type: functional
# MDA-MB-231 = assay: Cytotoxicity against human MDA-MB-231 cells assessed as growth inhibition at 10 uM after 48 hrs by SRB assay; type: functional; conditions: MDA-MB-231, 48 h, read-out: GI
# NCI-H23 [9] = assay: Cytotoxicity against human NCI-H23 cells assessed as growth level at 10 uM after 48 hrs by SRB assay; type: functional
# NCI-H460 = assay: Cytotoxicity against human NCI-H460 cells assessed as growth level at 10 uM after 48 hrs by SRB assay; type: functional
# [10] = Cytotoxicity against human NCI-ADR-RES cells assessed as growth inhibition at 10 uM after 48 hrs by SRB assay; type: functional; conditions: read-out: GI
# NCI-H522 = assay: Cytotoxicity against human NCI-H522 cells assessed as growth level at 10 uM after 48 hrs by SRB assay; type: functional
# MDA-MB-468 [11] = assay: Cytotoxicity against human MDA-MB-468 cells assessed as growth inhibition at 10 uM after 48 hrs by SRB assay; type: functional; conditions: MDA-MB-468, 48 h, read-out: GI
# A549 = assay: Cytotoxicity against human A549 cells assessed as growth inhibition at 10 uM after 48 hrs by SRB assay; type: functional; conditions: A549, 48 h, read-out: GI
# [12] = Cytotoxicity against human OVCAR4 cells assessed as growth level at 10 uM after 48 hrs by SRB assay; type: functional, OVCAR-4
# NCI-H226 = assay: Cytotoxicity against human NCI-H226 cells assessed as growth inhibition at 10 uM after 48 hrs by SRB assay; type: functional; conditions: NCI-H226, 48 h, read-out: GI
# MDA-MB-435 = assay: Cytotoxicity against human MDA-MB-435 cells assessed as growth level at 10 uM after 48 hrs by SRB assay; type: functional
# [13] = Cytotoxicity against human SF295 cells assessed as growth inhibition at 10 uM after 48 hrs by SRB assay; type: functional; conditions: SF-295, 48 h, read-out: GI
# KM12 = assay: Cytotoxicity against human KM12 cells assessed as growth inhibition at 10 uM after 48 hrs by SRB assay; type: functional; conditions: KM12, 48 h, read-out: GI
# [14] = Cytotoxicity against human IGROV1 cells assessed as growth level at 10 uM after 48 hrs by SRB assay; type: functional, IGROV-1
# [15] = Cytotoxicity against human DU145 cells assessed as growth inhibition at 10 uM after 48 hrs by SRB assay; type: functional; conditions: DU-145, 48 h, read-out: GI
# [16] = Cytotoxicity against human UACC257 cells assessed as growth level at 10 uM after 48 hrs by SRB assay; type: functional, UACC-257
# MCF7 = assay: Cytotoxicity against human MCF7 cells assessed as growth level at 10 uM after 48 hrs by SRB assay; type: functional
# SK-MEL-5 = assay: Cytotoxicity against human SK-MEL-5 cells assessed as growth level at 10 uM after 48 hrs by SRB assay; type: functional
# [17] = Cytotoxicity against human HOP62 cells assessed as growth level at 10 uM after 48 hrs by SRB assay; type: functional, HOP-62
# [18] = Cytotoxicity against human SW620 cells assessed as growth inhibition at 10 uM after 48 hrs by SRB assay; type: functional; conditions: SW-620, 48 h, read-out: GI
# [19] = Cytotoxicity against human HOP92 cells assessed as growth inhibition at 10 uM after 48 hrs by SRB assay; type: functional; conditions: HOP-92, 48 h, read-out: GI
# [20] = Cytotoxicity against human SF268 cells assessed as growth level at 10 uM after 48 hrs by SRB assay; type: functional, SF-268
# [21] = Cytotoxicity against human MOLT4 cells assessed as growth level at 10 uM after 48 hrs by SRB assay; type: functional, MOLT-4
# [22] = Cytotoxicity against human LOXIMVI cells assessed as growth inhibition at 10 uM after 48 hrs by SRB assay; type: functional; conditions: LOX IMVI, read-out: GI
# [23] = Cytotoxicity against human OVCAR8 cells assessed as growth inhibition at 10 uM after 48 hrs by SRB assay; type: functional; conditions: OVCAR-8, 48 h, read-out: GI
# NCI-H23 [24] = assay: Cytotoxicity against human NCI-H23 cells assessed as growth inhibition at 10 uM after 48 hrs by SRB assay; type: functional; conditions: NCI-H23, 48 h, read-out: GI
# SN12C [25] = assay: Cytotoxicity against human SN12C cells assessed as growth inhibition at 10 uM after 48 hrs by SRB assay; type: functional; conditions: read-out: GI
# [26] = Cytotoxicity against human UO31 cells assessed as growth inhibition at 10 uM after 48 hrs by SRB assay; type: functional; conditions: UO-31, 48 h, read-out: GI
# [27] = Cytotoxicity against human UACC257 cells assessed as growth inhibition at 10 uM after 48 hrs by SRB assay; type: functional; conditions: UACC-257, 48 h, read-out: GI
# [28] = Cytotoxicity against human DU145 cells assessed as growth level at 10 uM after 48 hrs by SRB assay; type: functional, DU-145
# [29] = Cytotoxicity against human UACC62 cells assessed as growth inhibition at 10 uM after 48 hrs by SRB assay; type: functional; conditions: UACC-62, 48 h, read-out: GI
compound,measurement,setting,value
C=C1CC[C@@H]2[C@](C)(COC(C)=O)[C@H](OC(C)=O)CC[C@@]2(C)[C@@H]1C/C=C1/C(=O)OC[C@H]1OC(C)=O,inhibition of growth at 10 µM,SR [1],94.4%
same,Activity,NCI-H322M,101.35%
same,Activity,[2],-37.34%
same,inhibition of growth at 10 µM,786-0,10.9%
same,Activity,MDA-MB-468 [3],7.98%
same,Activity,SR [4],5.73%
same,Activity,[5],79.11%
same,Activity,U-251,54.02%
same,Activity,[6],100.18%
same,Activity,[7],-21.85%
same,Activity,SN12C [8],33.42%
same,inhibition of growth at 10 µM,MDA-MB-231,4.16%
same,Activity,NCI-H23 [9],80.92%
same,Activity,NCI-H460,98.04%
same,inhibition of growth at 10 µM,[10],75%
same,Activity,NCI-H522,-41.64%
same,inhibition of growth at 10 µM,MDA-MB-468 [11],92%
same,inhibition of growth at 10 µM,A549,14.2%
same,Activity,[12],66.49%
same,inhibition of growth at 10 µM,NCI-H226,76.4%
same,Activity,MDA-MB-435,33.07%
same,inhibition of growth at 10 µM,[13],4.98%
same,inhibition of growth at 10 µM,KM12,47.2%
same,Activity,[14],102.65%
same,inhibition of growth at 10 µM,[15],49.1%
same,Activity,[16],66.52%
same,Activity,MCF7,22.9%
same,Activity,SK-MEL-5,56.18%
same,Activity,[17],75.75%
same,inhibition of growth at 10 µM,[18],21.9%
same,inhibition of growth at 10 µM,[19],28.1%
same,Activity,[20],87.06%
same,Activity,[21],-6.05%
same,inhibition of growth at 10 µM,[22],74.4%
same,inhibition of growth at 10 µM,[23],72.9%
same,inhibition of growth at 10 µM,NCI-H23 [24],19.1%
same,inhibition of growth at 10 µM,SN12C [25],66.6%
same,inhibition of growth at 10 µM,[26],37.2%
same,inhibition of growth at 10 µM,[27],33.5%
same,Activity,[28],50.88%
same,inhibition of growth at 10 µM,[29],70.3%
